Experimental data from patent US12239654B2, “Compounds and methods for treating neurological and cardiovascular conditions” (Astrocyte Pharmaceuticals, Inc., priority 2016, dated 2025).
Several values for one entry are separate records, joined by “and”; a condition that tells them apart may be missing. Equal entries are not always repeated. Where two headings read alike, the source gives them in different places.

What was measured:
[1] = In vitro stability of MRS2365 in human plasma; type: in vitro ADME
Protocol: Whole blood was obtained from male CD-1 mice and human volunteers at Seventh Wave Laboratories (Maryland Heights, MO). Plasma and blood samples were prepared using either EDTA (1 mM) or lithium heparin as anticoagulants.
Plasma Stability Determination: MRS2365, enalapril and procaine were solubilized in phosphate-buffered saline, pH 7.4. […] Stability incubations were initiated with the addition of MRS2365 (1 μM final concentration). Initial assessments of stability in EDTA-generated plasma utilized incubation timepoints of 0, 10, 30, 60, 120 and 240 minutes (FIGS. 3 and 4). Subsequent studies comparing EDTA- and heparin-generated plasma utilized incubation timepoints of 0, 1, 2.5, 5, 7.5, 10 and 30 minutes (FIG. 7). Additional plasma stability incubations comparing EDTA- and heparin-generated plasma were performed using timepoints of 0, 5, 10, 20, 30, 45, 60 and 90 seconds (FIG. 8). For metabolite scouting analyses, MRS2365 was incubated in heparinized human plasma at a concentration of 100 μM for 10 or 30 minutes (FIG. 9). In all studies, plasma was immediately placed in microtainer tubes, frozen on dry ice and stored at −80° C. until analysis.
The following table outlines the LC and MS/MS conditions employed (Table 11).
The calibration range for MRS2365 plasma and blood concentration standard curves was 5-5000 ng/mL. […]

[2] = Plasma binding determination by plasma ultrafiltration, neonatal pig; type: in vitro ADME; conditions: female, 37° C., read-out: % Bound Mean (converted)
Protocol: Plasma ultrafiltrate blank samples were prepared by thawing frozen plasma and then pre-warming plasma in a humidified 5% CO2 chamber at 37 C for 60 minutes. Aliquots of 800 ul were transferred to Centrifree Centrifugal Filters (Ultracel regenerated cellulose (NMWL 30,000 amu) Lot R5JA31736) and centrifuged at 2900 RPM at 37 C for 10 minutes; plasma water filtrates were collected and used in preparation of standards, blanks and QC standards.
Plasma Binding Determination. […] Plasma samples were pre-warmed for 60 minutes in a humidified, 5% CO2 incubator maintained at 37° C. […] Spiked plasma samples were incubated on a rotary mixer in a humidified 5% CO2 chamber at 37° C. for a minimum of 60 minutes. After 60 minutes, three 800 ul aliquots of each sample were added to Centrifree centrifugal filters. The filters were subjected to centrifugation at 2900 rpm for 10 minutes at 37° C. Three 100 ul aliquots of residual plasma were collected along with ultrafiltrate for bioanalysis.
For each tissue matrix, standard curves were created and LLOQ/ULOQ concentrations determined.

[3] = Pharmacokinetics of MRS4322 following intravenous administration to neonatal pigs; type: in vivo
Protocol: Animals. Four-week old female neonatal pigs weighing approximately 7.5 Kg were used for this study, supplied by the Department of Bioengineering, University of Pennsylvania (Philadelphia, PA). Animals were equipped with brain microdialysis probes to obtain brain extracellular fluid samples for drug concentration determinations during the study. All studies were conducted under approved University of Pennsylvania IACUC protocols.
Drug Administration: MRS4322 was solubilized in DMSO and then diluted in saline to prepare dosing solution. A 10 mL volume of dosing solution was administered by intravenous bolus administration to each neonatal pig (n=3).
Tissue Sampling: Blood samples were obtained at 0.25, 0.5, 1, 2, 4 and 6 hours post-dose. Brain extracellular fluid samples were obtained from implanted microdialysis probes at 1, 4 and 6 hours post-dose. Whole blood (1 mL) was obtained at each timepoint and placed in vacutainer tubes containing heparin and immediately centrifuged for preparation of plasma; plasma was stored at −80° C. Brain extracellular and cerebrospinal fluid samples were stored at −80° C. At the time of euthanasia (6 hours post-dose), cerebrospinal fluid samples were obtained and frozen, while brain samples from the cortex and hippocampus were obtained by decapitation, rinsed in ice-cold phosphate-buffered saline and weighed. Brain samples were then immediately flash-frozen in liquid nitrogen and stored at −80° C.
The following table outlines the LC and MS/MS conditions employed:
The calibration ranges for all of the MRS4322 matrice's standard curves were 0.1-1000 ng/mL.
For bioanalysis of brain concentrations of MRS4322, brain samples were homogenized in ice-cold phosphate-buffered saline in a 4× dilution. Aliquots of the resulting diluted brain homogenate were treated with acetonitrile and analyzed by LC-MS/MS.

[4] = plasma, MRS4322 0.2 mg/kg IV, individual animals, 0.2 mg/kg

SMILES: CSc1nc(N)c2ncn([C@H]3[C@H](O)[C@H](O)[C@]4(COP(=O)(O)OP(=O)(O)O)C[C@H]34)c2n1 [MRS2365]
- half-life at 1 μM ([1]; EDTA-prepared human plasma, 1 μM, incubation out to 240 minutes): > 4 h
- MRS2365 concentrations in heparin-treated plasma ([1]; heparin-treated human plasma, 0-90 seconds, even at 0 and 5 seconds): extremely low

SMILES: CSc1nc(N)c2ncn([C@H]3[C@H](O)[C@H](O)[C@]4(CO)C[C@H]34)c2n1 [MRS4322]
- fraction unbound at 60 min, 1 uM [2]: 0.784
- Brain Concentration by Subject ([3]; Brain Cortex, MRS4322 0.2 mg/kg IV, 6 h, individual subjects, 0.2 mg/kg): 0.0038 µg/mL and 0.00615 µg/mL
- Brain Concentration by Subject ([3]; Brain Hippocampus, MRS4322 0.2 mg/kg IV, 6 h, individual subjects, 0.2 mg/kg): 0.00456 µg/mL and 0.00539 µg/mL
- Cerebro-Spinal Fluid Concentration by Subject ([3]; CSF, MRS4322 0.2 mg/kg IV, 6 h, individual subjects, 0.2 mg/kg): 1.04 ng/mL and 1.75 ng/mL
- Plasma Concentration by Subject ([3]; MRS4322 0.2 mg/kg IV, 0 h, individual subjects): BLQ
- Plasma Concentration Mean ([3]; MRS4322 0.2 mg/kg IV, 0 h, mean): BLQ
- Plasma Concentration by Subject ([3]; MRS4322 0.2 mg/kg IV, 0.25 h, individual subjects, 0.2 mg/kg): 0.12 µg/mL and 0.163 µg/mL
- Plasma Concentration by Subject ([3]; MRS4322 0.2 mg/kg IV, 0.5 h, individual subjects, 0.2 mg/kg): 0.0541 µg/mL and 0.0987 µg/mL
- Plasma Concentration by Subject ([3]; MRS4322 0.2 mg/kg IV, 1 h, individual subjects, 0.2 mg/kg): 0.0514 µg/mL and 0.063 µg/mL
- Plasma Concentration by Subject ([3]; MRS4322 0.2 mg/kg IV, 2 h, individual subjects, 0.2 mg/kg): 0.0272 µg/mL and 0.0187 µg/mL and 0.0468 µg/mL
- Plasma Concentration by Subject ([3]; MRS4322 0.2 mg/kg IV, 4 h, individual subjects, 0.2 mg/kg): 0.0219 µg/mL and 0.0287 µg/mL
- Plasma Concentration by Subject ([3]; MRS4322 0.2 mg/kg IV, 6 h, individual subjects, 0.2 mg/kg): 0.0153 µg/mL and 0.00908 µg/mL and 0.0208 µg/mL
- Extracellular Fluid Concentration by Subject ([3]; brain ECF (microdialysis), MRS4322 0.2 mg/kg IV, 1 h, individual subjects, 0.2 mg/kg): 1.55 ng/mL and 0.641 ng/mL and 1.70 ng/mL
- Extracellular Fluid Concentration by Subject ([3]; brain ECF, MRS4322 0.2 mg/kg IV, 4 h, individual subjects, 0.2 mg/kg): 0.693 ng/mL and 0.579 ng/mL and 1.36 ng/mL
- Extracellular Fluid Concentration by Subject ([3]; brain ECF, MRS4322 0.2 mg/kg IV, 6 h, individual subjects, 0.2 mg/kg): 0.602 ng/mL and 0.459 ng/mL and 1.08 ng/mL
- Kp at 6 h ([3]; female, pig, 0.2 mg/kg, IV, 6 hours post-dose, based on mean concentrations in plasma and brain, read-out: brain/plasma ratio of total drug): ~0.3
- concentration at 6 h ([3]; female, pig, brain cortex, iv, 0.2 mg/kg, Brain Cortex, MRS4322 0.2 mg/kg IV, 6 h, individual subjects, read-out: Brain Concentration by Subject): 0.00534 µg/mL
- concentration at 6 h ([3]; female, pig, brain cortex, iv, 0.2 mg/kg, Brain Cortex, MRS4322 0.2 mg/kg IV, 6 h, mean, read-out: Brain Concentration Mean): 0.0051 µg/mL
- concentration at 1 h ([3]; female, pig, brain extracellular fluid, iv, 0.2 mg/kg, brain ECF, MRS4322 0.2 mg/kg IV, 1 h, mean, read-out: Extracellular Fluid Concentration Mean): 0.0013 µg/mL
- concentration at 4 h ([3]; female, pig, brain extracellular fluid, iv, 0.2 mg/kg, brain ECF, MRS4322 0.2 mg/kg IV, 4 h, mean, read-out: Extracellular Fluid Concentration Mean): 0.000941 µg/mL
- concentration at 6 h ([3]; female, pig, brain extracellular fluid, iv, 0.2 mg/kg, brain ECF, MRS4322 0.2 mg/kg IV, 6 h, mean, read-out: Extracellular Fluid Concentration Mean): 0.000714 µg/mL
- concentration at 6 h ([3]; female, pig, brain hippocampus, iv, 0.2 mg/kg, Brain Hippocampus, MRS4322 0.2 mg/kg IV, 6 h, individual subjects, read-out: Brain Concentration by Subject): 0.00647 µg/mL
- concentration at 6 h ([3]; female, pig, brain hippocampus, iv, 0.2 mg/kg, Brain Hippocampus, MRS4322 0.2 mg/kg IV, 6 h, mean, read-out: Brain Concentration Mean): 0.00547 µg/mL
- concentration at 6 h ([3]; female, pig, cerebrospinal fluid, iv, 0.2 mg/kg, CSF, MRS4322 0.2 mg/kg IV, 6 h, individual subjects, read-out: Cerebro-Spinal Fluid Concentration by Subject): 0.00137 µg/mL
- concentration at 6 h ([3]; female, pig, cerebrospinal fluid, iv, 0.2 mg/kg, CSF, MRS4322 0.2 mg/kg IV, 6 h, mean, read-out: Cerebro-Spinal Fluid Concentration Mean): 0.00139 µg/mL
- Tmax ([3]; female, pig, plasma, MRS4322 0.2 mg/kg IV, mean, read-out: Tmax Mean): 0.25 h
- concentration at 0.25 h ([3]; female, pig, plasma, iv, 0.2 mg/kg, MRS4322 0.2 mg/kg IV, 0.25 h, individual subjects, read-out: Plasma Concentration by Subject): 0.133 µg/mL
- concentration at 0.25 h ([3]; female, pig, plasma, iv, 0.2 mg/kg, MRS4322 0.2 mg/kg IV, 0.25 h, mean, read-out: Plasma Concentration Mean): 0.139 µg/mL
- concentration at 0.5 h ([3]; female, pig, plasma, iv, 0.2 mg/kg, MRS4322 0.2 mg/kg IV, 0.5 h, individual subjects, read-out: Plasma Concentration by Subject): 0.0853 µg/mL
- concentration at 0.5 h ([3]; female, pig, plasma, iv, 0.2 mg/kg, MRS4322 0.2 mg/kg IV, 0.5 h, mean, read-out: Plasma Concentration Mean): 0.0794 µg/mL
- concentration at 1 h ([3]; female, pig, plasma, iv, 0.2 mg/kg, MRS4322 0.2 mg/kg IV, 1 h, individual subjects, read-out: Plasma Concentration by Subject): 0.0589 µg/mL
- concentration at 1 h ([3]; female, pig, plasma, iv, 0.2 mg/kg, MRS4322 0.2 mg/kg IV, 1 h, mean, read-out: Plasma Concentration Mean): 0.0578 µg/mL
- concentration at 2 h ([3]; female, pig, plasma, iv, 0.2 mg/kg, MRS4322 0.2 mg/kg IV, 2 h, mean): 0.0309 µg/mL
- concentration at 4 h ([3]; female, pig, plasma, iv, 0.2 mg/kg, MRS4322 0.2 mg/kg IV, 4 h, individual subjects, read-out: Plasma Concentration by Subject): 0.0233 µg/mL
- concentration at 4 h ([3]; female, pig, plasma, iv, 0.2 mg/kg, MRS4322 0.2 mg/kg IV, 4 h, mean, read-out: Plasma Concentration Mean): 0.0246 µg/mL
- concentration at 6 h ([3]; female, pig, plasma, iv, 0.2 mg/kg, MRS4322 0.2 mg/kg IV, 6 h, mean, read-out: Plasma Concentration Mean): 0.0151 µg/mL
- half-life ([3]; female, pig, plasma, iv, 0.2 mg/kg, MRS4322 0.2 mg/kg IV, mean): 3.42 h
- AUC(0-inf) ([3]; female, pig, plasma, iv, 0.2 mg/kg, plasma, MRS4322 0.2 mg/kg IV, individual animals, read-out: AUCINF): 0.344 µg·h/mL
- AUC(0-t) ([3]; female, pig, plasma, iv, 0.2 mg/kg, plasma, MRS4322 0.2 mg/kg IV, individual animals, read-out: AUClast): 0.238 µg·h/mL
- C0 ([3]; female, pig, plasma, iv, 0.2 mg/kg, plasma, MRS4322 0.2 mg/kg IV, individual animals, read-out: C0): 0.207 µg/mL
- clearance ([3]; female, pig, plasma, iv, 0.2 mg/kg, plasma, MRS4322 0.2 mg/kg IV, individual animals, read-out: Cl): 0.581 L/h/kg
- Cmax ([3]; female, pig, plasma, iv, 0.2 mg/kg, plasma, MRS4322 0.2 mg/kg IV, individual animals, read-out: Cmax): 0.133 µg/mL
- Vd ([3]; female, pig, plasma, iv, 0.2 mg/kg, plasma, MRS4322 0.2 mg/kg IV, individual animals, read-out: Vz): 4.04 L/kg
- AUC(0-inf) ([3]; female, pig, plasma, iv, 0.2 mg/kg, plasma, MRS4322 0.2 mg/kg IV, mean, read-out: AUCINF Mean): 0.326 µg·h/mL
- AUC(0-t) ([3]; female, pig, plasma, iv, 0.2 mg/kg, plasma, MRS4322 0.2 mg/kg IV, mean, read-out: AUClast Mean): 0.249 µg·h/mL
- C0 ([3]; female, pig, plasma, iv, 0.2 mg/kg, plasma, MRS4322 0.2 mg/kg IV, mean, read-out: C0 Mean): 0.248 µg/mL
- clearance ([3]; female, pig, plasma, iv, 0.2 mg/kg, plasma, MRS4322 0.2 mg/kg IV, mean, read-out: Cl Mean): 0.648 L/h/kg
- Cmax ([3]; female, pig, plasma, iv, 0.2 mg/kg, plasma, MRS4322 0.2 mg/kg IV, mean, read-out: Cmax Mean): 0.139 µg/mL
- Vd ([3]; female, pig, plasma, iv, 0.2 mg/kg, plasma, MRS4322 0.2 mg/kg IV, mean, read-out: Vz Mean): 3.05 L/kg
- Tmax ([3]; plasma, MRS4322 0.2 mg/kg IV, individual animals): 0.25 h
- AUCINF [3, 4]: 0.233 µg·h/mL and 0.401 µg·h/mL
- AUClast [3, 4]: 0.203 µg·h/mL and 0.307 µg·h/mL
- C0 [3, 4]: 0.286 µg/mL and 0.289 µg/mL
- Cl [3, 4]: 0.858 L/h/kg and 0.499 L/h/kg
- Cmax [3, 4]: 0.12 µg/mL and 0.163 µg/mL
- Half Life [3, 4]: 4.82 h and 2.31 h and 3.13 h
- Vz [3, 4]: 2.86 L/kg and 2.25 L/kg
